From US9340590B2 (priority 2011, dated 2016)
Read-outs that look alike come from different tables or passages of the source. Positions of bridges follow the written chain, without caps; N, C: chain ends. Non-standard residues stand in square brackets, D forms with d. Residues, ends and D or L forms follow the SMILES beside them. 1Nal = N[C@@H](Cc1cccc2ccccc12)C(=O)O

Legend:
Assay in all cases: cell-based
hNav1.5 = hNav1.5 (Homo sapiens, UniProt Q14524)
hNav1.3 = hNav1.3 (Homo sapiens, UniProt Q9NY46); format: cell-based; details: Nav1.3 Use IC50
hNav1.3, sequence (Q9NY46 whole entry, looked up): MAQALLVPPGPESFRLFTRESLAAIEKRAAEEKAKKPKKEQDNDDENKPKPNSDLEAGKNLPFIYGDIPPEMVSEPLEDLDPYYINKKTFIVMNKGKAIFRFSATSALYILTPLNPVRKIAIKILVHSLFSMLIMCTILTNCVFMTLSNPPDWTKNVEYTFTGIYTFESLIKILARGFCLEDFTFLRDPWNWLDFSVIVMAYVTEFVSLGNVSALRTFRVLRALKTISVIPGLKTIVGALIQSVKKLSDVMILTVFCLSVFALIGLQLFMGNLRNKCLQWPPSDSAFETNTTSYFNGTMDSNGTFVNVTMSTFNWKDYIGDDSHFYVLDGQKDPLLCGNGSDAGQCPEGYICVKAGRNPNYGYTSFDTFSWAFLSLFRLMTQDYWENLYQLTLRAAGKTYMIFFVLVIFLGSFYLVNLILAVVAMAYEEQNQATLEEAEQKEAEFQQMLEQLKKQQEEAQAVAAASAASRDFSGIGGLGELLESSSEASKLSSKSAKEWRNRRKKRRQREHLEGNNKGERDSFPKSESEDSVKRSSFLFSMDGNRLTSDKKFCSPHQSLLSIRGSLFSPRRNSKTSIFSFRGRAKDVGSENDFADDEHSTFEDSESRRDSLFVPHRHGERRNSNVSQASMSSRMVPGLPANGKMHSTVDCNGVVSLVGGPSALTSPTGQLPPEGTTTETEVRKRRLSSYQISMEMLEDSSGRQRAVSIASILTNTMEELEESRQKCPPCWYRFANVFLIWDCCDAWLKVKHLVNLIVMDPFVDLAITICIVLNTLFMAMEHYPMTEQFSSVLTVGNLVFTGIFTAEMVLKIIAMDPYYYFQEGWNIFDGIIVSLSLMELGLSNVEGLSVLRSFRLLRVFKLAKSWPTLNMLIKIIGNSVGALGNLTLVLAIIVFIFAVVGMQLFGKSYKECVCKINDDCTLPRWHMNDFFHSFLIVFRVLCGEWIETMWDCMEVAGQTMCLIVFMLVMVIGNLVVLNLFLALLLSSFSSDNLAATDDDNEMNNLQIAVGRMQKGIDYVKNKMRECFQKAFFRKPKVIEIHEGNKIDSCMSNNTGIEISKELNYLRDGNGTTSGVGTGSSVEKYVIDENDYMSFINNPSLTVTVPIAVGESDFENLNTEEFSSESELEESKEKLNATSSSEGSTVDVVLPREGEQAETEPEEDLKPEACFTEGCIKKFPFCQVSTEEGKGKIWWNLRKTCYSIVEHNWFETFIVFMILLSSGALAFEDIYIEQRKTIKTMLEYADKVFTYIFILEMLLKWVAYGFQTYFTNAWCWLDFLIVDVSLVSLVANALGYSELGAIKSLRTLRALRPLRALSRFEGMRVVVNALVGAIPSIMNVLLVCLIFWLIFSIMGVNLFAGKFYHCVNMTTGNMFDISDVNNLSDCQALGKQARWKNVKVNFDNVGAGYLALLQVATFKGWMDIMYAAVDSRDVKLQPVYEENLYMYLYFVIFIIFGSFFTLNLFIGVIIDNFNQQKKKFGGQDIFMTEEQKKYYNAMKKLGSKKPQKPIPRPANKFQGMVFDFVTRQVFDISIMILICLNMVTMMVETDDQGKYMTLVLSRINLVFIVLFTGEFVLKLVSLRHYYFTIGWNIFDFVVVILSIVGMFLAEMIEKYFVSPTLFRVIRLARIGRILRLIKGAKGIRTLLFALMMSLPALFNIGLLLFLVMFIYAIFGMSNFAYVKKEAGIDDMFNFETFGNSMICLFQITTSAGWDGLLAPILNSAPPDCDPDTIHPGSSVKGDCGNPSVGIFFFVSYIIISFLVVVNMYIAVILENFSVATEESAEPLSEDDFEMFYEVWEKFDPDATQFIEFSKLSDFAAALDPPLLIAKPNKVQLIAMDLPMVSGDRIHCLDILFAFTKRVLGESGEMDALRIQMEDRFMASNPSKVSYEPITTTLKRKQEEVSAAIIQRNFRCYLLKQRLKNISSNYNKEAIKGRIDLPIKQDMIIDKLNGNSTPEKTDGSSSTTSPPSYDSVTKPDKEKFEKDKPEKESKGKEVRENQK

hNav1.7 = hNav1.7 (Homo sapiens, UniProt Q15858); details: Nav1.7 Use IC50
hNav1.7, sequence (Q15858 whole entry, looked up): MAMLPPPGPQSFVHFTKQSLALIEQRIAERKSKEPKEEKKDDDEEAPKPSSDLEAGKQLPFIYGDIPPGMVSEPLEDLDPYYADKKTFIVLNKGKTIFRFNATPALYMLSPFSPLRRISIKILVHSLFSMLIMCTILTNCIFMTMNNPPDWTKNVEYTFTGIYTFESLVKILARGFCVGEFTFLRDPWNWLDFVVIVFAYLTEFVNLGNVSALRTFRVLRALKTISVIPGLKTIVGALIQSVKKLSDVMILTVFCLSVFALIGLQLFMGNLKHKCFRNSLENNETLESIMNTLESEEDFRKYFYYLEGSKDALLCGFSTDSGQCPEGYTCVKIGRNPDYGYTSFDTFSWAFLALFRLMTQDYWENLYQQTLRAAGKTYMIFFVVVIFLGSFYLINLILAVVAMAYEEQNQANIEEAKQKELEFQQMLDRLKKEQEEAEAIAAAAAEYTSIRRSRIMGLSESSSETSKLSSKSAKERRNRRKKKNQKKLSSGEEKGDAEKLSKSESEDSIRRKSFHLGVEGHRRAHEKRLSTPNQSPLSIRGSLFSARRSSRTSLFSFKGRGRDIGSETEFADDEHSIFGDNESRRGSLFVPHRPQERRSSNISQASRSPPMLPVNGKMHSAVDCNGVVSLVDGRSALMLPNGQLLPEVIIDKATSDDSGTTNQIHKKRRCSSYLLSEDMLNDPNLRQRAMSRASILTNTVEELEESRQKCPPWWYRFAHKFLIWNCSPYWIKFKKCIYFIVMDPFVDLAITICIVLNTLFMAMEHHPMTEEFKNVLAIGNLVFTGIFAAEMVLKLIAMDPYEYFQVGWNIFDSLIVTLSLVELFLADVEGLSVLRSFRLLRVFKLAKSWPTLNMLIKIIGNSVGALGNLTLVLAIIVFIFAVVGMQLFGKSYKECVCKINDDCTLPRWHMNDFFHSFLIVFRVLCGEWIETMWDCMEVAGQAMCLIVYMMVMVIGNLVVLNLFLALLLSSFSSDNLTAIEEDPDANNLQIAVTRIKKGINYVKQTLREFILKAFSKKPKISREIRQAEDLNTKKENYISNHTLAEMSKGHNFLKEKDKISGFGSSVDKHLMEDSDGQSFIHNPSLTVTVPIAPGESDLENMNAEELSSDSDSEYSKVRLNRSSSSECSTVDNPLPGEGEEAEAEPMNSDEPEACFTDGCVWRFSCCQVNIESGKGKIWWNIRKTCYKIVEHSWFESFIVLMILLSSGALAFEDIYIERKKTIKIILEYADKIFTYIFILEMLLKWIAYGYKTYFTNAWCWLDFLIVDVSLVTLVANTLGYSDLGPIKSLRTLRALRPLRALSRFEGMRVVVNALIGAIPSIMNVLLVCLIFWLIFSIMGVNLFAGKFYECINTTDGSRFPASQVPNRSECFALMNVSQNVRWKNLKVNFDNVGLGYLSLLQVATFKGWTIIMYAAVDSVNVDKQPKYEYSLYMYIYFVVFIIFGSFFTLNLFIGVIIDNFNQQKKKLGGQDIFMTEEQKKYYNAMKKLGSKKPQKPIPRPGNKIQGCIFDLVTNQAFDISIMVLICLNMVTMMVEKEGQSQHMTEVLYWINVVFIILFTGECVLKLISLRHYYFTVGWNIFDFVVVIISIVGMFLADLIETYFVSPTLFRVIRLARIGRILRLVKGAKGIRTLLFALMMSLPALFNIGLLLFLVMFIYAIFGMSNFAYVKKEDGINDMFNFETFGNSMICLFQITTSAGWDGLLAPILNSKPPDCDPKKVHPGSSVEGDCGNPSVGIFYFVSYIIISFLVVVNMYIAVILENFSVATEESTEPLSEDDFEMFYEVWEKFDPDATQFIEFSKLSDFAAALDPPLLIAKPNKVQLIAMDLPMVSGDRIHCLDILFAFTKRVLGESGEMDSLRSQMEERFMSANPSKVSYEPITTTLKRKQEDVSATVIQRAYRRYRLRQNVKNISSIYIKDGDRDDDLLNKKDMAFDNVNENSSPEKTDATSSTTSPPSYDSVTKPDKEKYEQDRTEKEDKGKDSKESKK

Row | SMILES | IC50 (hNav1.5) [nM] | IC50 (hNav1.3) [nM] | IC50 (hNav1.7) [nM] | IC50 (hNav1.5; read-out: Nav1.5 Use IC50) [nM]
1 | CC[C@H](C)[C@@H]1NC(=O)[C@@H]2CSSC[C@@H]3NC(=O)[C@H](C(C)C)NC(=O)[C@H](CC(C)C)NC(=O)[C@H](CC(N)=O)NC(=O)[C@@H]4CCCN4C(=O)[C@H](CCCNC(=N)N)NC(=O)[C@H](CSSC[C@H](NC(=O)[C@@H](N)CC(=O)O)C(=O)N[C@@H](CC(C)C)C(=O)NCC(=O)N[C@@H](C)C(=O)N[C@@H](CCSC)C(=O)N[C@@H](CCCNC(=N)N)C(=O)N[C@@H](CCCCN)C(=O)N2)NC(=O)[C@H](CSSC[C@@H](C(=O)N[C@@H](CCCCN)C(=O)N[C@@H](Cc2ccc(O)cc2)C(=O)N[C@@H](Cc2c[nH]c4ccccc24)C(=O)N[C@@H](Cc2ccccc2)C(N)=O)NC(=O)[C@H](Cc2c[nH]c4ccccc24)NC(=O)[C@H](CCCCN)NC(=O)[C@H](Cc2c[nH]cn2)NC(=O)[C@H]([C@@H](C)O)NC(=O)[C@H](CCCNC(=N)N)NC(=O)[C@H](CO)NC3=O)NC(=O)[C@H](CCCCN)NC(=O)[C@H](CC(=O)O)NC(=O)[C@H](CC(N)=O)NC(=O)[C@H](CC(=O)O)NC(=O)[C@@H]2CCCN2C1=O [[Ala5;Trp33]GpTx-1(1-34)] (H-DCLGAMRKCIPDNDKCCRPNLVCSRTHKWCKYWF-NH2; disulfide 2-17, 9-23, 16-30) | > 10000 | 569 | 34 | –
2 | CC[C@H](C)[C@@H]1NC(=O)[C@@H]2CSSC[C@@H]3NC(=O)[C@H](C(C)C)NC(=O)[C@H](CC(C)C)NC(=O)[C@H](CC(N)=O)NC(=O)[C@@H]4CCCN4C(=O)[C@H](CCCNC(=N)N)NC(=O)[C@H](CSSC[C@H](NC(=O)[C@@H](N)CC(=O)O)C(=O)N[C@@H](CC(C)C)C(=O)NCC(=O)N[C@@H](Cc4ccccc4)C(=O)N[C@@H](CCSC)C(=O)N[C@@H](CCCNC(=N)N)C(=O)N[C@@H](CCCCN)C(=O)N2)NC(=O)[C@H](CSSC[C@@H](C(=O)N[C@@H](CCCCN)C(=O)N[C@@H](Cc2cccc4ccccc24)C(=O)N[C@H](C(=O)N[C@@H](Cc2ccccc2)C(N)=O)C(C)C)NC(=O)[C@H](Cc2c[nH]c4ccccc24)NC(=O)[C@H](CCCNC(=N)N)NC(=O)[C@H](Cc2c[nH]cn2)NC(=O)[C@H]([C@@H](C)O)NC(=O)[C@H](CCCNC(=N)N)NC(=O)[C@H](CO)NC3=O)NC(=O)[C@H](CCCCN)NC(=O)[C@H](CC(=O)O)NC(=O)[C@H](CC(N)=O)NC(=O)[C@H](CC(=O)O)NC(=O)[C@@H]2CCCN2C1=O [[Arg28;1-Nal32]GpTx-1(1-34)] (H-DCLGFMRKCIPDNDKCCRPNLVCSRTHRWCK[1Nal]VF-NH2; disulfide 2-17, 9-23, 16-30) | 1060 | 6 | 5 | –
3 | CC[C@H](C)[C@@H]1NC(=O)[C@@H]2CSSC[C@@H]3NC(=O)[C@H](C(C)C)NC(=O)[C@H](CC(C)C)NC(=O)[C@H](CC(N)=O)NC(=O)[C@@H]4CCCN4C(=O)[C@H](CCCNC(=N)N)NC(=O)[C@H](CSSC[C@H](NC(=O)[C@@H](N)CC(=O)O)C(=O)N[C@@H](CC(C)C)C(=O)NCC(=O)N[C@@H](Cc4ccccc4)C(=O)N[C@@H](CCSC)C(=O)N[C@@H](CCCNC(=N)N)C(=O)N[C@@H](CCCCN)C(=O)N2)NC(=O)[C@H](CSSC[C@@H](C(=O)N[C@@H](CCCCN)C(=O)N[C@@H](Cc2ccc(O)cc2)C(=O)N[C@H](C(=O)N[C@@H](Cc2ccccc2)C(N)=O)C(C)C)NC(=O)[C@H](Cc2c[nH]c4ccccc24)NC(=O)[C@H](CCCNC(=N)N)NC(=O)[C@H](Cc2c[nH]cn2)NC(=O)[C@H]([C@@H](C)O)NC(=O)[C@H](CCCNC(=N)N)NC(=O)[C@H](CO)NC3=O)NC(=O)[C@H](CCCCN)NC(=O)[C@H](CC(=O)O)NC(=O)[C@H](CC(N)=O)NC(=O)[C@H](CC(=O)O)NC(=O)[C@@H]2CCCN2C1=O [[Arg28]GpTx-1(1-34)] | – | 12 | 7 | 8730
4 | CC[C@H](C)[C@@H]1NC(=O)[C@@H]2CSSC[C@@H]3NC(=O)[C@H](C(C)C)NC(=O)[C@H](CC(C)C)NC(=O)[C@H](CC(N)=O)NC(=O)[C@@H]4CCCN4C(=O)[C@H](CCCNC(=N)N)NC(=O)[C@H](CSSC[C@H](NC(=O)[C@@H](N)CC(=O)O)C(=O)N[C@@H](CC(C)C)C(=O)NCC(=O)N[C@@H](Cc4ccccc4)C(=O)N[C@@H](CCSC)C(=O)N[C@@H](CCCNC(=N)N)C(=O)N[C@@H](CCCCN)C(=O)N2)NC(=O)[C@H](CSSC[C@@H](C(=O)N[C@@H](CCCCN)C(=O)N[C@@H](Cc2ccc(O)cc2)C(=O)N[C@@H](CCC(N)=O)C(=O)N[C@@H](Cc2ccccc2)C(N)=O)NC(=O)[C@H](Cc2c[nH]c4ccccc24)NC(=O)[C@H](CCCCN)NC(=O)[C@H](Cc2c[nH]cn2)NC(=O)[C@H]([C@@H](C)O)NC(=O)[C@H](CCCNC(=N)N)NC(=O)[C@H](CO)NC3=O)NC(=O)[C@H](CCCCN)NC(=O)[C@H](CC(=O)O)NC(=O)[C@H](CC(N)=O)NC(=O)[C@H](CC(=O)O)NC(=O)[C@@H]2CCCN2C1=O [[Gln33]GpTx-1(1-34)] (H-DCLGFMRKCIPDNDKCCRPNLVCSRTHKWCKYQF-NH2; disulfide 2-17, 9-23, 16-30) | 8250 | 10 | 6 | –
5 | CC[C@H](C)[C@@H]1NC(=O)[C@@H]2CSSC[C@@H]3NC(=O)[C@H](C(C)C)NC(=O)[C@H](CC(C)C)NC(=O)[C@H](CC(N)=O)NC(=O)[C@@H]4CCCN4C(=O)[C@H](CCCNC(=N)N)NC(=O)[C@H](CSSC[C@H](NC(=O)[C@@H](N)CC(=O)O)C(=O)N[C@@H](CC(C)C)C(=O)NCC(=O)N[C@@H](Cc4ccccc4)C(=O)N[C@@H](CCSC)C(=O)N[C@@H](CCCNC(=N)N)C(=O)N[C@@H](CCCCN)C(=O)N2)NC(=O)[C@H](CSSC[C@@H](C(=O)N[C@@H](CCCCN)C(=O)N[C@@H](Cc2ccc(O)cc2)C(=O)N[C@@H](CCC(=O)O)C(=O)N[C@@H](Cc2ccccc2)C(N)=O)NC(=O)[C@H](Cc2c[nH]c4ccccc24)NC(=O)[C@H](CCCCN)NC(=O)[C@H](Cc2cnc[nH]2)NC(=O)[C@H]([C@@H](C)O)NC(=O)[C@H](CCCNC(=N)N)NC(=O)[C@H](CO)NC3=O)NC(=O)[C@H](CCCCN)NC(=O)[C@H](CC(=O)O)NC(=O)[C@H](CC(N)=O)NC(=O)[C@H](CC(=O)O)NC(=O)[C@@H]2CCCN2C1=O [[Glu33]GpTx-1(1-34)] (H-DCLGFMRKCIPDNDKCCRPNLVCSRTHKWCKYEF-NH2; disulfide 2-17, 9-23, 16-30) | > 10000 | 52 | 27 | –
6 | CC[C@H](C)[C@H](NC(=O)[C@H](Cc1ccc(O)cc1)NC(=O)[C@H](CCCCN)NC(=O)[C@@H]1CSSC[C@@H]2NC(=O)[C@H](CCCCN)NC(=O)[C@H](CC(=O)O)NC(=O)[C@H](CC(N)=O)NC(=O)[C@H](CC(=O)O)NC(=O)[C@@H]3CCCN3C(=O)[C@H]([C@@H](C)CC)NC(=O)[C@@H]3CSSC[C@H](NC(=O)[C@H](C(C)C)NC(=O)[C@H](CC(C)C)NC(=O)[C@H](CC(N)=O)NC(=O)[C@@H]4CCCN4C(=O)[C@H](CCCNC(=N)N)NC(=O)[C@H](CSSC[C@H](NC(=O)[C@@H](N)CC(=O)O)C(=O)N[C@@H](CC(C)C)C(=O)NCC(=O)N[C@@H](Cc4ccccc4)C(=O)N[C@@H](CCSC)C(=O)N[C@@H](CCCNC(=N)N)C(=O)N[C@@H](CCCCN)C(=O)N3)NC2=O)C(=O)N[C@@H](CO)C(=O)N[C@@H](CCCNC(=N)N)C(=O)N[C@@H]([C@@H](C)O)C(=O)N[C@@H](Cc2c[nH]cn2)C(=O)N[C@@H](CCCCN)C(=O)N[C@@H](Cc2c[nH]c3ccccc23)C(=O)N1)C(=O)N[C@@H](Cc1ccccc1)C(N)=O [[Ile33]GpTx-1(1-34)] (H-DCLGFMRKCIPDNDKCCRPNLVCSRTHKWCKYIF-NH2; disulfide 2-17, 9-23, 16-30) | > 10000 | 102 | 37 | –
7 | CC[C@H](C)[C@@H]1NC(=O)[C@@H]2CSSC[C@@H]3NC(=O)[C@H](C(C)C)NC(=O)[C@H](CC(C)C)NC(=O)[C@H](CC(N)=O)NC(=O)[C@@H]4CCCN4C(=O)[C@H](CCCNC(=N)N)NC(=O)[C@H](CSSC[C@H](NC(=O)[C@@H](N)CC(=O)O)C(=O)N[C@@H](CC(C)C)C(=O)NCC(=O)N[C@@H](Cc4ccccc4)C(=O)N[C@@H](CCSC)C(=O)N[C@@H](CCCNC(=N)N)C(=O)N[C@@H](CCCCN)C(=O)N2)NC(=O)[C@H](CSSC[C@@H](C(=O)N[C@@H](CCCCN)C(=O)N[C@@H](Cc2ccc(O)cc2)C(=O)N[C@H](C(=O)N[C@@H](Cc2ccccc2)C(N)=O)C(C)C)NC(=O)[C@H](Cc2c[nH]c4ccccc24)NC(=O)[C@H](CCCCN)NC(=O)[C@H](Cc2cnc[nH]2)NC(=O)[C@H](CC(C)C)NC(=O)[C@H](CCCNC(=N)N)NC(=O)[C@H](CO)NC3=O)NC(=O)[C@H](CCCCN)NC(=O)[C@H](CC(=O)O)NC(=O)[C@H](CC(N)=O)NC(=O)[C@H](CC(=O)O)NC(=O)[C@@H]2CCCN2C1=O [[Leu26]GpTx-1(1-34)] (H-DCLGFMRKCIPDNDKCCRPNLVCSRLHKWCKYVF-NH2; disulfide 2-17, 9-23, 16-30) | 5010 | 23 | 3 | –
8 | CC[C@H](C)[C@@H]1NC(=O)[C@@H]2CSSC[C@@H]3NC(=O)[C@H](C(C)C)NC(=O)[C@H](CC(C)C)NC(=O)[C@H](CC(N)=O)NC(=O)[C@@H]4CCCN4C(=O)[C@H](CCCNC(=N)N)NC(=O)[C@H](CSSC[C@H](NC(=O)[C@@H](N)CC(=O)O)C(=O)N[C@@H](CC(C)C)C(=O)NCC(=O)N[C@@H](Cc4ccccc4)C(=O)N[C@@H](CCSC)C(=O)N[C@@H](CCCNC(=N)N)C(=O)N[C@@H](CCCCN)C(=O)N2)NC(=O)[C@H](CSSC[C@@H](C(=O)N[C@@H](CCCCN)C(=O)N[C@@H](Cc2ccc(O)cc2)C(=O)N[C@H](C(=O)N[C@@H](Cc2ccccc2)C(N)=O)C(C)C)NC(=O)[C@H](Cc2c[nH]c4ccccc24)NC(=O)[C@H](CCCCN)NC(=O)[C@H]([C@@H](C)O)NC(=O)[C@H](CCCCN)NC(=O)[C@H](CCCNC(=N)N)NC(=O)[C@H](CO)NC3=O)NC(=O)[C@H](CCCCN)NC(=O)[C@H](CC(=O)O)NC(=O)[C@H](CC(N)=O)NC(=O)[C@H](CC(=O)O)NC(=O)[C@@H]2CCCN2C1=O [[Lys26;Thr27]GpTx-1(1-34)] (H-DCLGFMRKCIPDNDKCCRPNLVCSRKTKWCKYVF-NH2; disulfide 2-17, 9-23, 16-30) | 1390 | 16 | 4 | –
